Assay results taken from patent US20150064221A1, “COMPOUNDS HAVING IMMUNOMUDULATOR ACTIVITY” (priority 2012, published 2015).
Read-outs that look alike come from different tables or passages of the source.

How the values were obtained:
[1] = Plasma pharmacokinetics after intraperitoneal administration; assay type: in vivo; details: mouse, ip, mice, i.p. 20 mg/kg
Description: To determine the pharmacokinetic properties of VGX-1027, drug concentrations were analyzed in the plasma of mice. The drug was measured post intraperitoneum administration at 20 mg/kg […] in 500 mM Na2HPO4, which is a therapeutically active concentration. […] Based on the linear part of the pharmacokinetic profile, the t1/2 of VGX-1027 is approximately 90 minutes.

[2] = biological target: CYP2C19 (Homo sapiens, UniProt P33261); assay: CYP450 inhibition; assay type: in vitro ADME; details: human; 2C19 at 30 μM; read-out: highest level of inhibition
Description: (§1) The highest plasma concentrations generally occurred in 1-2 hours. […] The highest level of inhibition was ˜35% for 2C19 at a 30 μM concentration. […] Lastly, VGX-1027 is stable in human liver S9 fractions (with phase 1 and 2 cofactors) with t1/2>90 minutes, which indicates a low likelihood of metabolism in the liver.

[3] = biological target: CYP450 1A2 (Homo sapiens, UniProt P05177); assay: CYP450 inhibition; assay type: in vitro ADME
Description: as §1

[4] = biological target: CYP450 2C19 (Homo sapiens, UniProt P33261); assay: CYP450 inhibition; assay type: in vitro ADME; details: 2C19
Description: as §1

[5] = biological target: CYP450 2D6 (Homo sapiens, UniProt P10635); assay: CYP450 inhibition; assay type: in vitro ADME
Description: as §1

[6] = biological target: CYP450 3A4 (Homo sapiens, UniProt P08684); assay: CYP450 inhibition; assay type: in vitro ADME
Description: as §1

[7] = Placebo-controlled ascending single-dose study in healthy subjects (CAT001); assay type: in vivo, human; details: for Cmax / half-life / AUC / Tmax / AUC(0-t): human, in vivo, oral; for AUC(0-t): read-out: AUC (0-24)
Description: FIG. 21. […] Subjects were administered from 1 mg to 800 mg of VGX1027.
A placebo-controlled, ascending single-dose study was performed to evaluate the safety and pharmacokinetics of VGX-1027 in healthy human subjects. Study was performed upon 7 groups of subjects: group 1: 1 mg of VGX-1027 after fasting; group 2: 10 mg of VGX-1027 after fasting; group 3: 100 mg of VGX-1027 after fasting; group 4: 200 mg of VGX-1027 after fasting; group 5: 400 mg of VGX-1027 after fasting; group 6: 800 mg of VGX-1027 after fasting; and group 7: 100 mg of VGX-1027 after fasting, and after fed.

[8] = test system: NF-kB; assay: NF-kB activation in human macrophages; assay type: cell-based; details: LPS induced, monocyte-derived human macrophages
[9] = test system: CAR-induced pleurisy; assay: Carrageenan (CAR)-induced pleurisy; assay type: in vivo, mice; details: i.p. or oral
Description: VGX-1027 was administered via the intraperitoneum or orally, and the production of exudates volume (A), PCN infiltration (B), and MPO activity (C) in the lungs was determined. Data are means±SD from 2 independent experiments.
Next, carrageenan (CAR)-induced pleurisy, a well-known model of acute inflammation mediated by leukocytes where type-1 proinflammatory cytokines such as IL-1 and TNF-α play a major pathogenic role, was evaluated. Mice that are challenged with CAR develop acute pleurisy with turbid exudates. The amount of inflammation was measured by the volume of exudates, the number of granulocytes (PCN), and the amount of Myeloperoxidase (MPO), activity in the lungs. Anti-TNF antibodies were used as a control to compare the effects of VGX-1027 with those of TNF-α blockade, which is commonly used to treat inflammatory disorders in humans.

[10] = 1 mg, single dose 1 mg, fasted, geometric mean
[11] = 10 mg, single dose 10 mg, fasted, geometric mean
[12] = 100 mg, Fasted vs Fed: 100 mg fasted, geometric mean
[13] = 100 mg, Fasted vs Fed: 100 mg fed, geometric mean
[14] = 100 mg, single dose 100 mg, fasted, geometric mean
[15] = 200 mg, single dose 200 mg, fasted, geometric mean
[16] = 400 mg, single dose 400 mg, fasted, geometric mean
[17] = 800 mg, single dose 800 mg, fasted, geometric mean

CYP450 1A2, sequence (P05177 whole entry): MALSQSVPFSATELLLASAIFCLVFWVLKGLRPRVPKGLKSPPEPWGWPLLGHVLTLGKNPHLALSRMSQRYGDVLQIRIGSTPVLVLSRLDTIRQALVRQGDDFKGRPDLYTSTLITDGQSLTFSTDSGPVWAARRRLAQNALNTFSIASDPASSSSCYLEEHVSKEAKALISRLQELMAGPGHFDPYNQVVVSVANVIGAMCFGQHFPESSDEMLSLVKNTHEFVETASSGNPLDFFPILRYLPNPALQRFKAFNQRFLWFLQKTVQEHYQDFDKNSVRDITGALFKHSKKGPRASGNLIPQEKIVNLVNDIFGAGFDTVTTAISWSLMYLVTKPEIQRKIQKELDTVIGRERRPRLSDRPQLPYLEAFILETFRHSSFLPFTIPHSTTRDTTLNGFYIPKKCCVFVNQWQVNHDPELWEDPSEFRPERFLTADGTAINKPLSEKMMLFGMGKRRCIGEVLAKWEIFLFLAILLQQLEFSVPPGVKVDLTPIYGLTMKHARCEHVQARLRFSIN
CYP450 2D6, sequence (P10635 whole entry): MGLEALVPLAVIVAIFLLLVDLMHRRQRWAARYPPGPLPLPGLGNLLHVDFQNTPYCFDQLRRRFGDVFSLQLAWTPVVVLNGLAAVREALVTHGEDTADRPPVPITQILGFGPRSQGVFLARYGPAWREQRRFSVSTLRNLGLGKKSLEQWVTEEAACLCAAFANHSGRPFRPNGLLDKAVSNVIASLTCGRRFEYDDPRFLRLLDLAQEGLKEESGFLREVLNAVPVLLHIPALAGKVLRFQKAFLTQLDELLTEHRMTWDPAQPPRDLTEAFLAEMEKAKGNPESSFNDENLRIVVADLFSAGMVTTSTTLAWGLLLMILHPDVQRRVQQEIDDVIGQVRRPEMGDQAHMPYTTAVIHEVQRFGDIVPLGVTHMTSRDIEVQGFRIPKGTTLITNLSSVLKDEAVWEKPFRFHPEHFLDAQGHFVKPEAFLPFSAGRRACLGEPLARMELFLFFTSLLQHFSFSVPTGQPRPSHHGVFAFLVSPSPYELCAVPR
CYP450 3A4, sequence (P08684 whole entry): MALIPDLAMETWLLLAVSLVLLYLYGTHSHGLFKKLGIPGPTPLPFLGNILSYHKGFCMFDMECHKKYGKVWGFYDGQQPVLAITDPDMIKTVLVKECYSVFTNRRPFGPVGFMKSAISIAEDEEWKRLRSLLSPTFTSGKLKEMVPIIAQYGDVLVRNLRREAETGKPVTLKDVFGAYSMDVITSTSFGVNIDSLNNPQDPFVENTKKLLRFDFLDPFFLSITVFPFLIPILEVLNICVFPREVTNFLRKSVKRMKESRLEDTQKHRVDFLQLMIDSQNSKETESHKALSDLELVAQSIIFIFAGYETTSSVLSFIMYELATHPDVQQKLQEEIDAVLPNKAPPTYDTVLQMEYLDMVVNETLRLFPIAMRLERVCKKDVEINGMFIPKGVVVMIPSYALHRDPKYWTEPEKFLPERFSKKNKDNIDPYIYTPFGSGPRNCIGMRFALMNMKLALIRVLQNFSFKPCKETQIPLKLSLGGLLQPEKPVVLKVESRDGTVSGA
CYP2C19, sequence (P33261 whole entry): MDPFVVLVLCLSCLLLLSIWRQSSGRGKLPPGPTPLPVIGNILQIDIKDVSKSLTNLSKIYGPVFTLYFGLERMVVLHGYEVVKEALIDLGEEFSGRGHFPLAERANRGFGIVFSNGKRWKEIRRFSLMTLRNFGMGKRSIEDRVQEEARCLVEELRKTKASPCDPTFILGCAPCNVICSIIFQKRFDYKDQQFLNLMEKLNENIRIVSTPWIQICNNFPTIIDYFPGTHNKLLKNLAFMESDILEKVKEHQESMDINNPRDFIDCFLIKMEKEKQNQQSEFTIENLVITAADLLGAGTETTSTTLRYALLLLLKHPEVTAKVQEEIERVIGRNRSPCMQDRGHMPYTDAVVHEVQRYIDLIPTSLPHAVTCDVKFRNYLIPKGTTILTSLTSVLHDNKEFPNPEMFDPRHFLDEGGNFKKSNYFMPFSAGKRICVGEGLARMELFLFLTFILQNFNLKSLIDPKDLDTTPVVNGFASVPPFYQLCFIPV
CYP450 2C19, sequence (P33261 whole entry): as above

In the case of `O=C(O)CC1CC(c2ccccc2)=NO1` (stereo not shown) [VGX-1027, 3-phenyl-4,5-dihydro-5-isoxazoleacetic acid], the Tmax ([1]; 20 mg/kg) is reported as 2 h, the concentration at 6 h ([1]; after 6 hours post injection, read-out: plasma drug concentration) is reported as less than 10000 ng/mL and the concentration at 30 min ([1]; by 30 minutes post injection, read-out: plasma drug concentration) is reported as greater than 80000 ng/mL. It also gave a half-life ([1]; linear part of the profile) of roughly 1.5 h, a Cmax ([1]; read-out: peak plasma concentration (Cmax)) of 130000 ng/mL and an inhibition at 30 µM [2] of roughly 35%. The CYP450 inhibition [3] was “no significant inhibition”, the CYP450 inhibition [4] was “no significant inhibition” and the CYP450 inhibition [5] was “no significant inhibition”. The CYP450 inhibition [6] was “no significant inhibition”, the “Grade 3 or 4 AEs” value ([7]; human studies) was “No Grade 3 or 4 AEs were reported” and the SAEs ([7]; human studies) was “no SAEs were reported”. The Cmax [7, 10] was 50 ng/mL, the half-life [7, 10] was 7.2 h and the AUC ([7]; 1 mg, single dose 1 mg, fasted, geometric mean, read-out: AUC) was 460 ng·h/mL. It also gave a Tmax ([7]; 1 mg, single dose 1 mg, fasted, median) of 1 h, a Cmax [7, 11] of 1100 ng/mL and a half-life [7, 11] of 4.9 h. For the same compound, the AUC ([7]; 10 mg, single dose 10 mg, fasted, geometric mean, read-out: AUC) was 4430 ng·h/mL, the Tmax ([7]; 10 mg, single dose 10 mg, fasted, median) was 0.5 h and the Cmax [7, 12] was 6500 ng/mL. It also gave a half-life [7, 12] of 5.9 h, an AUC ([7]; 100 mg, Fasted vs Fed: 100 mg fasted, geometric mean, read-out: AUC) of 37800 ng·h/mL and a Tmax ([7]; 100 mg, Fasted vs Fed: 100 mg fasted, median) of 1.25 h. For the same compound, the Cmax [7, 13] was 4600 ng/mL, the half-life [7, 13] was 6.3 h and the AUC ([7]; 100 mg, Fasted vs Fed: 100 mg fed, geometric mean, read-out: AUC) was 55700 ng·h/mL. The Tmax ([7]; 100 mg, Fasted vs Fed: 100 mg fed, median) was 3.5 h, the Tmax ([7]; 100 mg, Single Dose (CAT001) 100 mg) was 1.8 h and the Cmax ([7]; 100 mg, Single Dose (CAT001) 100 mg, Geo Mean) was 9070 ng/mL. For the same compound, the Cmax [7, 14] was 9100 ng/mL, the half-life [7, 14] was 8.8 h and the AUC ([7]; 100 mg, single dose 100 mg, fasted, geometric mean, read-out: AUC) was 74600 ng·h/mL. For the same compound, the Tmax ([7]; 100 mg, single dose 100 mg, fasted, median) was 1.75 h, the Tmax ([7]; 200 mg, Single Dose (CAT001) 200 mg) was 1.5 h and the Cmax ([7]; 200 mg, Single Dose (CAT001) 200 mg, Geo Mean) was 15700 ng/mL. It also gave an AUC ([7]; 200 mg, Single Dose (CAT001) 200 mg, Geo Mean, read-out: AUC (AUC to 12 hours)) of 78500 ng·h/mL, a Cmax [7, 15] of 15700 ng/mL and a half-life [7, 15] of 7.7 h. The AUC ([7]; 200 mg, single dose 200 mg, fasted, geometric mean, read-out: AUC) was 111000 ng·h/mL, the Tmax ([7]; 200 mg, single dose 200 mg, fasted, median) was 1.5 h and the Cmax [7, 16] was 23800 ng/mL. It also gave a half-life [7, 16] of 6.7 h, an AUC ([7]; 400 mg, single dose 400 mg, fasted, geometric mean, read-out: AUC) of 155000 ng·h/mL and a Tmax ([7]; 400 mg, single dose 400 mg, fasted, median) of 1.25 h. It also gave a Cmax [7, 17] of 43200 ng/mL, a half-life [7, 17] of 7.9 h and an AUC ([7]; 800 mg, single dose 800 mg, fasted, geometric mean, read-out: AUC) of 330000 ng·h/mL. It also gave a Tmax ([7]; 800 mg, single dose 800 mg, fasted, median) of 2 h, an AUC(0-t) ([7]; Single Dose (CAT001) 100 mg, Geo Mean) of 66800 ng·h/mL and an AUC(0-t) ([7]; Single Dose (CAT001) 200 mg, Geo Mean) of 98400 ng·h/mL. For the same compound, the tolerability in humans ([7]; oral pill) was “safe and well-tolerated”, the dosing toxicities ([7]; up to 800 mg QD single dose) was “No dosing toxicities were observed” and the “DNA binding of NF-kB” value [8] was “powerfully inhibits in a dose-dependent fashion”. For the same compound, the “Myeloperoxidase (MPO) activity in the lungs” value [9] was “effectively decreased”, the “number of granulocytes (PCN)” value [9] was “effectively decreased” and the “prevention of CAR-induced pleurisy compared with anti-TNF” value [9] was “as effective as anti-TNF treatment”. The volume of exudates [9] was “effectively decreased”.
